Test results reported in PMC9144902, “Metal(II) Complexes of the Fluoroquinolone Fleroxacin: Synthesis, Characterization and Biological Profile” (Pharmaceutics, 2022).

Columns and labels:
CT DNA = experiment: Study of the DNA-interaction by cyclic voltammetry; assay type: binding, calf; details: for Epa(f), anodic potential / Epc(f), cathodic potential / Epa(b), anodic potential / Epc(b), cathodic potential: M(II)/M(I), 1:2 DMSO/buffer; for Epa(f), anodic potential / Epc(f), cathodic potential: absence of CT DNA; for Epa(b), anodic potential / Epc(b), cathodic potential: presence of CT DNA; for Kr/Kox, ratio of equilibrium DNA-binding constants (reduced/oxidized form): eq. S6
Description: Cyclic voltammetry was used to study the interaction of the complexes with CT DNA. An intercalative interaction will induce a positive shift for the electrochemical potential(s) of metal oxidation/reduction, whereas, in the case of electrostatic interaction, a negative shift in the potential(s) may occur. The cyclic voltammograms of the complexes in a 1:2 DMSO:buffer solution (0.33 mM) were recorded in the absence and presence of the CT DNA solution (Figure S13). The predominant electrochemical feature for all complexes is a positive shift in the potential in the presence of CT DNA (ΔEpc/a = (–30)–(+127) mV). Consequently, the intercalative nature of the interaction of the complexes with DNA can be inferred from the presented data.
In order to evaluate further the redox behavior of the complexes, the corresponding equilibrium constants were calculated by determining the ratio Kr/Kox in accordance to Equation (S6), where Kox and Kr are the DNA-binding constants for the oxidized and reduced form, respectively, of the metal ions. For all complexes, the Kr/Kox ratio is close to or above 1 (Table 7), showing the selective binding of DNA to the […] form of the complexes. […]
S3.3 Study of the DNA –interaction by cyclic vol ta mmetry
Cyclic voltammetr y can be also used in order to calculate the corresponding equilibrium constant for the redox process. The ratio of the DNA–binding constants for the reduced (K r) and oxidized forms (Kox) of t he complex es (Kr/Kox) w as calculat ed according t o eq. S6:
Δ = = 0.059 × lo gEE E K oxoo o (eq. S6) […]
where Eo and Eo are the formal potentials of M(II)/M(I) redox couple in the fully bound and […]
free complexes, respectivel y. Kox and Kr are the binding constants for the binding of the oxidized and reduced species to DNA, respectivel y [S8] . […]

EB–DNA adduct (CT DNA) = experiment: Competitive study with EB (EB–DNA fluorescence quenching); assay type: binding, calf; details: for Ksv, Stern–Volmer constant: EB–DNA adduct; for ΔI/Io, percentage of EB–DNA fluorescence quenching: [EB] = 20 μM, [DNA] = 26 μM, λexc 540 nm, λem 592 nm; for EB–DNA relative fluorescence emission intensity, % of the initial (I/Io): λemission = 592 nm, final value (up to), Figure S14; for kq, EB–DNA quenching constant: τo = 23 ns

| Structure (SMILES) | Epa(f), anodic potential (CT DNA) | Epc(f), cathodic potential (CT DNA) | Epa(b), anodic potential (CT DNA) | Epc(b), cathodic potential (CT DNA) | Kr/Kox, ratio of equilibrium DNA-binding constants (reduced/oxidized form) (CT DNA) | Ksv, Stern–Volmer constant (EB–DNA adduct (CT DNA)) | ΔI/Io, percentage of EB–DNA fluorescence quenching (EB–DNA adduct (CT DNA)) | EB–DNA relative fluorescence emission intensity, % of the initial (I/Io) (EB–DNA adduct (CT DNA)) | kq, EB–DNA quenching constant (EB–DNA adduct (CT DNA)) |
| --- | --- | --- | --- | --- | --- | --- | --- | --- | --- |
| CN1CCN(c2c(F)cc3c(=O)c(C(=O)[O-])cn(CCF)c3c2F)CC1.CN1CCN(c2c(F)cc3c(=O)c(C(=O)[O-])cn(CCF)c3c2F)CC1.[Co+2].c1ccc(Nc2ccccn2)nc1 [complex 16, [Co(flrx)2(bipyam)]] | −466 mV | −729 mV | −445 mV | −741 mV | 1.08 | 3.77(±0.12) × 10^5 M^–1 | 70.7% | 29.3% | 1.64(±0.05) × 10^13 M^−1s^−1 |
| CN1CCN(c2c(F)cc3c(=O)c(C(=O)[O-])cn(CCF)c3c2F)CC1.[Cl-].[Cu+2].c1ccc(Nc2ccccn2)nc1 [complex 7, [Cu(flrx)(bipyam)Cl]] | −426 mV | −729 mV | −300 mV | −710 mV | 3.41 | 3.44(±0.06) × 10^5 M^–1 | 62.7% | 37.3% | 1.50(±0.03) × 10^13 M^−1s^−1 |
| CN1CCN(c2c(F)cc3c(=O)c(C(=O)[O-])cn(CCF)c3c2F)CC1.CN1CCN(c2c(F)cc3c(=O)c(C(=O)[O-])cn(CCF)c3c2F)CC1.[Cu+2] [complex 1, [Cu(flrx)2]] | −504 mV | −725 mV | −462 mV | −735 mV | 1.31 | 2.18(±0.06) × 10^5 M^–1 | 62.2% | 37.8% | 9.47(±0.03) × 10^12 M^−1s^−1 |
| CN1CCN(c2c(F)cc3c(=O)c(C(=O)[O-])cn(CCF)c3c2F)CC1.CN1CCN(c2c(F)cc3c(=O)c(C(=O)[O-])cn(CCF)c3c2F)CC1.[Mn+2].c1ccc(Nc2ccccn2)nc1 [complex 10, [Mn(flrx)2(bipyam)]] | −495 mV | −706 mV | −508 mV | −695 mV | 0.98 | 5.92(±0.14) × 10^5 M^–1 | 81.1% | 18.9% | 2.57(±0.06) × 10^13 M^−1s^−1 |
| CN1CCN(c2c(F)cc3c(=O)c(C(=O)[O-])cn(CCF)c3c2F)CC1.CN1CCN(c2c(F)cc3c(=O)c(C(=O)[O-])cn(CCF)c3c2F)CC1.[Ni+2].c1ccc(Nc2ccccn2)nc1 [complex 18, [Ni(flrx)2(bipyam)]] | −523 mV | −695 mV | −512 mV | −689 mV | 1.15 | 3.02(±0.13) × 10^5 M^–1 | 59.3% |  | 1.31(±0.05) × 10^13 M^−1s^−1 |
